In patent US12024510B2, “Pyrazolopyridine-diamides, their use as insecticide and processes for preparing the same” (PI INDUSTRIES LTD., priority 2017, dated 2024) one finds mortality data, which are given here for 18 compounds.

Holding throughout (assay type): in vivo
One assay relates to Helicoverpa armigera. The experiment in a line: Helicoverpa armigera diet incorporation method. The note with it: third instar larvae, dead and moribund combined, 96 h after release. As for the experimental part: (§1) Test Solutions were Prepared According to the Procedure Described Herein Below (500 PPM):
(§2) • 1. Eppendorf Vortex mixer (ThermoMixer C) and 1.5 mL Eppendorf tubes • 2. Zirconia (Zirconium-Yttrium) beads having diameter of 0.8 to 1.0 mm • 3. Microscope • 4. Beaker 100 mL • 5. Micro-pipette Reagents: • 1. Surfactant Solution • 2. De-mineralized (DM) Water • 1. Weigh 10 mg of the compound of the present invention to be tested in an Eppendorf Tube. • 2. Add 200 mg of the Surfactant Solution into the tube. • 3. Add 600 mg of Zirconia beads into the above mixture. • 4. Fix the tube in Eppendorf Vortex mixer and start vortexing at 2000 rpm. • 5. Mix on Vortex mixer for 30 minutes. After 30 minutes, observe the sample over a microscope at 400× resolution. • 6. If the Maximum particle size is more than 5 μm or average particle size is more than 2 μm or the particle size distribution is uneven, continue vortexing for another 30 minutes and again check the particle size using the microscope. Continue till the average particle size is below 2 microns. • 7. When the required particle size is achieved, add 1.0 mL DM water into the tube, close the cap, shake the tube thoroughly and transfer the contents, along with the beads, into a beaker. • 8. To rinse the tube, add another 1.0 mL of DM water into the tube, close the cap, shake well and transfer this into the same beaker. • 9. Repeat Step no. 8 one more time so that the tube is rinsed well and the compound of the present invention to be tested is transferred to the beaker. • 10. Add 16.8 mL of DM water into the beaker and stir well. • 11. The homogeneous dispersion can then be decanted into a glass vial, immediately, to separate the Zirconia beads. • 12. Immediately use this sample for biological testing. • 13. Further dilutions can be prepared by taking appropriate quantity of the aliquot of Step 10, immediately after stirring, and diluting as per requirement. The sample solution must be well mixed just before biological testing.
(§3) Diet incorporation method was used, in which and semi-synthetic diet was incorporated into the test solution when the temperature is approximately 50° C. in the bioassay containers and stirred thoroughly for properly mixing and then was allowed to cool for 30 min. The solidified diet was cut into equal pieces, and then each piece was transferred in one cell in Bio-assay trays. A single third instar starved larva was released into each of these cells of bioassay trays and the tray was covered with the lid. The bio-assay trays were kept under laboratory conditions at a temperature of 25° C. and Relative Humidity of 70%. Observations on dead, moribund and live larvae were recorded at 96 h after the release of larvae. Percent mortality was calculated by combining dead and moribund larvae. The following compound numbers

The next assay concerns Spodoptera litura. The experiment in a line: Spodoptera litura diet incorporation method. The note with it: third instar larvae, dead and moribund combined, 96 h after release. How it is done: as §1, §2
as §3, with “which” for “which and”

The subject of the next assay is Plutella xylostella. The experiment in a line: whole plant or invertebrate. The note with it: foliar, cabbage leaf dip, second instar larvae, dead and moribund combined, 72 h after release. The method, boiled down: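 Compounds milled with zirconia beads into surfactant dispersion (500 ppm stock), diluted in 0.01% Triton-X. Cabbage leaves dipped 10 s, shade-dried 20 min; one second-instar larva per cell, 25 °C, 70% RH. Mortality (dead plus moribund) scored at 72 h.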

As usually defined, the mortality is the percentage killed. In the case of `Cc1cc2ccnn2c(C(=O)NC2CC2)c1NC(=O)c1cc(Cn2nnc(C(F)(F)F)n2)nn1-c1ncccc1Cl` [Compound 168, 6-(1-(3-chloropyridin-2-yl)-3-((5-(trifluoromethyl)-2H-tetrazol-2-yl)methyl)-1H-pyrazole-5-carboxamido)-N-cyclopropyl-5-methylpyrazolo[1,5-a]pyridine-7-carboxamide], the mortality at 300 ppm with Helicoverpa armigera and in the assay with Spodoptera litura was greater than 70% throughout.

On to `Cc1cc2ccnn2c(C(=O)NC2CSC2)c1NC(=O)c1cc(Br)nn1-c1ncccc1Cl` [Compound 207, 6-(3-bromo-1-(3-chloropyridin-2-yl)-1H-pyrazole-5-carboxamido)-5-methyl-N-(thietan-3-yl)pyrazolo[1,5-a]pyridine-7-carboxamide], for which the mortality at 300 ppm in the assay on Spodoptera litura and in the assay with Plutella xylostella was greater than 70% each time.

Take `CCONC(=O)c1c(NC(=O)c2cc(Br)nn2-c2ncccc2Cl)c(C)cc2ccnn12` [Compound 106, 6-(3-bromo-1-(3-chloropyridin-2-yl)-1H-pyrazole-5-carboxamido)-N-ethoxy-5-methylpyrazolo[1,5-a]pyridine-7-carboxamide]: the mortality at 300 ppm in the assay on Spodoptera litura and in the assay with Plutella xylostella was greater than 70% each time.

As for `CCNC(=O)c1c(NC(=O)c2cc(Br)nn2-c2ncccc2Cl)c(Cl)cc2ccnn12` [Compound 142, 6-(3-bromo-1-(3-chloropyridin-2-yl)-1H-pyrazole-5-carboxamido)-5-chloro-N-ethylpyrazolo[1,5-a]pyridine-7-carboxamide], the mortality at 300 ppm with Spodoptera litura and with Plutella xylostella was greater than 70% throughout.

Take `CCCC(C)NC(=O)c1c(NC(=O)c2cc(OC)nn2-c2ncccc2Cl)c(C)cc2ccnn12` (centres unmarked) [Compound 184, 6-(1-(3-chloropyridin-2-yl)-3-methoxy-1H-pyrazole-5-carboxamido)-5-methyl-N-(pentan-2-yl)pyrazolo[1,5-a]pyridine-7-carboxamide]: the mortality at 300 ppm in the assay with Spodoptera litura and in the assay on Plutella xylostella was greater than 70% each time.

Regarding `Cc1cc2ccnn2c(C(=O)NC2(C#N)CC2)c1NC(=O)c1cc(Br)nn1-c1ncccc1Cl` [Compound 216, 6-(3-bromo-1-(3-chloropyridin-2-yl)-1H-pyrazole-5-carboxamido)-N-(1-cyanocyclopropyl)-5-methylpyrazolo[1,5-a]pyridine-7-carboxamide], the mortality at 300 ppm in the assay with Spodoptera litura and in the assay on Plutella xylostella was greater than 70% each time.

In the case of `Cc1cc2ccnn2c(C(=O)NC(C)C2CC2)c1NC(=O)c1cc(OCC(F)(F)F)nn1-c1ncccc1Cl` (centres unmarked) [Compound 121, 6-(1-(3-chloropyridin-2-yl)-3-(2,2,2-trifluoroethoxy)-1H-pyrazole-5-carboxamido)-N-(1-cyclopropylethyl)-5-methylpyrazolo[1,5-a]pyridine-7-carboxamide], the mortality at 300 ppm with Helicoverpa armigera and in the assay with Spodoptera litura was greater than 70% each time.

Consider `COc1cc(C(=O)Nc2c(Cl)cc3ccnn3c2C(=O)NC(C)(C)C)n(-c2ncccc2Cl)n1` [Compound 136, N-(tert-butyl)-5-chloro-6-(1-(3-chloropyridin-2-yl)-3-methoxy-1H-pyrazole-5-carboxamido)pyrazolo[1,5-a]pyridine-7-carboxamide], for which the mortality at 300 ppm in the assay with Helicoverpa armigera and in the assay with Spodoptera litura was greater than 70% in each case.

In the case of `Cc1cc2ccnn2c(C(=O)NC(C)C2CC2)c1NC(=O)c1cc(Cn2nnc(C(F)(F)F)n2)nn1-c1ncccc1Cl` (centres unmarked) [Compound 169, 6-(1-(3-chloropyridin-2-yl)-3-((5-(trifluoromethyl)-2H-tetrazol-2-yl)methyl)-1H-pyrazole-5-carboxamido)-N-(1-cyclopropylethyl)-5-methylpyrazolo[1,5-a]pyridine-7-carboxamide], the mortality at 300 ppm in the assay on Helicoverpa armigera and in the assay with Spodoptera litura was greater than 70% each time.

With `Cc1cc2ccnn2c(C(=O)NC(C)CCC(C)C)c1NC(=O)c1cc(Br)nn1-c1ncccc1Cl` (centres unmarked) [Compound 188, 6-(3-bromo-1-(3-chloropyridin-2-yl)-1H-pyrazole-5-carboxamido)-5-methyl-N-(5-methylhexan-2-yl)pyrazolo[1,5-a]pyridine-7-carboxamide], the mortality at 300 ppm in the assay on Spodoptera litura and in the assay with Plutella xylostella was greater than 70% throughout.

On to `CCCNC(=O)c1c(NC(=O)c2cc(C(F)(F)F)nn2-c2ncccc2Cl)c(C)cc2ccnn12` [Compound 92, 6-(1-(3-chloropyridin-2-yl)-3-(trifluoromethyl)-1H-pyrazole-5-carboxamido)-5-methyl-N-propylpyrazolo[1,5-a]pyridine-7-carboxamide], for which the mortality at 300 ppm in the assay with Helicoverpa armigera and in the assay with Spodoptera litura was greater than 70% in each case.

For `COCCNC(=O)c1c(NC(=O)c2cc(OCC(F)(F)F)nn2-c2ncccc2Cl)c(C)cc2ccnn12` [Compound 17, 6-(1-(3-chloropyridin-2-yl)-3-(2,2,2-trifluoroethoxy)-1H-pyrazole-5-carboxamido)-N-(2-methoxyethyl)-5-methylpyrazolo[1,5-a]pyridine-7-carboxamide], the mortality at 300 ppm in the assay on Spodoptera litura and in the assay with Plutella xylostella was greater than 70% throughout.

Take `Cc1cc2ccnn2c(C(=O)NCC2CCCO2)c1NC(=O)c1cc(Br)nn1-c1ncccc1Cl` (racemic) [Compound 189, rac-(R)-6-(3-bromo-1-(3-chloropyridin-2-yl)-1H-pyrazole-5-carboxamido)-5-methyl-N-((tetrahydrofuran-2-yl)methyl)pyrazolo[1,5-a]pyridine-7-carboxamide]: the mortality at 300 ppm in the assay with Spodoptera litura and with Plutella xylostella was greater than 70% each time.

In the case of `CC(C)NC(=O)c1c(NC(=O)c2cc(C(F)(F)F)nn2-c2ncccc2Cl)c(Br)cc2ccnn12` [Compound 107, 5-bromo-6-(1-(3-chloropyridin-2-yl)-3-(trifluoromethyl)-1H-pyrazole-5-carboxamido)-N-isopropylpyrazolo[1,5-a]pyridine-7-carboxamide], the mortality at 300 ppm with Helicoverpa armigera and in the assay with Spodoptera litura was greater than 70% throughout.

For `C=CCNC(=O)c1c(NC(=O)c2cc(C(F)(F)F)nn2-c2ncccc2Cl)c(C)cc2ccnn12` [Compound 64, N-allyl-6-(1-(3-chloropyridin-2-yl)-3-(trifluoromethyl)-1H-pyrazole-5-carboxamido)-5-methylpyrazolo[1,5-a]pyridine-7-carboxamide], the mortality at 300 ppm in the assay with Helicoverpa armigera and in the assay with Spodoptera litura was greater than 70% throughout.

As to `Cc1cc2ccnn2c(C(=O)NC(C)C(F)(F)F)c1NC(=O)c1cc(C(F)(F)F)nn1-c1ncccc1Cl` (centres unmarked) [Compound 220, 6-(1-(3-chloropyridin-2-yl)-3-(trifluoromethyl)-1H-pyrazole-5-carboxamido)-5-methyl-N-(1,1,1-trifluoropropan-2-yl)pyrazolo[1,5-a]pyridine-7-carboxamide], in the assay on Spodoptera litura, the mortality at 300 ppm was greater than 70%.

On to `COc1cc(C(=O)Nc2c(C)cc3ccnn3c2C(=O)NCC(F)(F)F)n(-c2ncccc2Cl)n1` [Compound 110, 6-(1-(3-chloropyridin-2-yl)-3-methoxy-1H-pyrazole-5-carboxamido)-5-methyl-N-(2,2,2-trifluoroethyl)pyrazolo[1,5-a]pyridine-7-carboxamide], for which the mortality at 300 ppm in the assay with Spodoptera litura and in the assay on Plutella xylostella was greater than 70% throughout.

As for `Cc1cc2ccnn2c(C(=O)NCCC#N)c1NC(=O)c1cc(OCC(F)(F)F)nn1-c1ncccc1Cl` [Compound 47, 6-(1-(3-chloropyridin-2-yl)-3-(2,2,2-trifluoroethoxy)-1H-pyrazole-5-carboxamido)-N-(2-cyanoethyl)-5-methylpyrazolo[1,5-a]pyridine-7-carboxamide], the mortality at 300 ppm in the assay with Spodoptera litura and with Plutella xylostella was greater than 70% throughout.
